Reference: article PMC8042727, “Apoptosis-like cell death upon kinetoplastid induction by compounds isolated from the brown algae Dictyota spiralis” (Parasites & Vectors, 2021)
Blank lines part the entries; values can stand above or below the compound they belong to.

How the values were obtained:
T. cruzi = tested on: T. cruzi; parameters: method as in PMID 23442789; settings: read-out: IC50 against T. cruzi; cited from earlier work
[1] = Cytotoxicity on macrophages (AlamarBlue, 24 h); assay type: cell-based; settings: mouse, J774A.1 macrophages, J774A.1, 24 h, read-out: CC50: murine macrophages
Description: Cytotoxicity of the tested molecules was evaluated after 24 h using macrophages of the murine cell line J774.A1 (American Type Culture Collection #TIB-67). The cells were maintained in DMEM medium at 37 °C in a 5% CO2 humidified incubator. The viability of the macrophages was determined with the AlamarBlue assay and the emitted fluorescence was assayed in an Enspire microplate reader (PerkinElmer Inc.) at 570/585 nm. Briefly, 50 µl of macrophages was placed in a 96-well flat bottom plate at a density of 2 × 10^5/ml in RPMI medium supplemented with 10% FBS without phenol. Cells were allowed to adhere for 15 min, and their progress was checked using a Leika inverted microscope (Leika Camera AG, Wetzlar, Germany). At the same time, a serially dilution of the test compounds was made in a deep 96-well plate with the same medium, and then 50 µl of each serially diluted molecule was added to each well of the 96-well flat bottom plate. Finally, 10% of AlamarBlue was added to each well. The plates were incubated at 37 °C in 5% CO2 for 24 h. Dose–response curves were plotted and the 50% cytotoxic concentrations (CC50) were obtained. The analyses were performed in triplicate.

[2] = tested on: Trypanosoma cruzi epimastigotes (Y strain); assay: In vitro evaluation on T. cruzi epimastigotes (AlamarBlue, 72 h); assay type: cell-based; settings: nonlinear regression of AlamarBlue curve, read-out: IC90 Trypanosoma cruzi: epimastigote
Description: Experiments including in vitro activity assays of isolated compounds 1–3 were performed against the promastigote and amastigote stages of Leishmania amazonensis (MHOM/BR/77/LTB0016) and the epimastigote stage of Trypanosoma cruzi (Y strain). Promastigotes of L. amazonensis were cultured in Schneider’s medium (Sigma-Aldrich, St. Louis, MO, USA). Typanosoma cruzi strain Y was cultured in liver Infusion tryptose (LIT) medium. The three molecules 1-3 were tested against epimastigotes of T. cruzi. Briefly, the molecules were dissolved in DMSO in 96-well plates and a serially diluted concentration was made in 100 μl of LIT medium supplemented with 10% heat-inactivated FBS. In all tests, a maximum of 1% DMSO was used to dissolve the highest dose of the compounds without inducing any effects on the parasites; epimastigotes in the logarithmic growth phase were then counted, adjusted to 5 × 10^5 cells/ml, distributed on the previous 96-well plate and incubated at 27 °C for 72 h. The plate was observed under an inverted microscope after 72 h of incubation and analyzed statistically as described for the leishmanicidal test. Hoechst dye is a blue-fluorescent dye that stains condensed chromatin of apoptotic cells. To detect DNA condensation, the chromatin condensation/dead cell apoptosis kit was used (Invitrogen, Thermo Fisher Scientific, Waltham, MA, USA). Cells were incubated in the presence of the compounds to be tested at IC90. The IC90 values were determined using nonlinear regression of the AlamarBlue® curve. After 24 h of incubation, cells were harvested and resuspended in medium, following which 1 μl of Hoechst 33342 stock solution was added to parasites and incubated for 20 min. Results were analyzed by cell imaging using the Evos FL cell imaging system (Thermo Fisher Scientific). The experiments were repeated using a double-stain apoptosis detection kit (Hoechst 33342/PI; Thermo Fisher Scientific). […] A positive control was also tested: miltefosine (L. amazonensis) and benznidazole (T. cruzi).

Trypanosoma cruzi [3] = assay: ATP level (CellTiter-Glo); assay type: cell-based; settings: T. cruzi, IC90, 24 h, relative to negative control
Description: The CellTiter-Glo® luminescent cell viability assay (Promega, WI, USA) was used to quantify the adenosine triphosphate (ATP) concentration. Cells of the kinetoplastid strains (for both L. amazonensis [2 × 10^6 cells/ml] and T. cruzi [5 × 10^5cells/ml]) were incubated for 24 h with the compounds to be tested, at IC90 and 26 °C. After incubation, the cells were centrifuged and resuspended in 100 μl. To this volume, we added 100 μl of the reactive in white 96-well plates. After incubation, the luminescence signal was measured using the Enspire multimode plate reader. The decrease in ATP level was expressed as a percentage relative to the negative control. Miltefosine and benznidazole were tested as the positive control for L. amazonensis and T. cruzi, respectively.

Trypanosoma cruzi [4] = assay: Oxidative stress / ROS accumulation (CellROX Deep Red); assay type: cell-based; settings: T. cruzi, IC90, 24 h
Description: (§1) The reagent used for this assay was a fluorogenic probe to measure cellular oxidative stress upon oxidation by reactive oxygen species (ROS). To perform the test, cells were incubated with the compounds to be tested, at IC90 for 24 h. The cells were centrifuged and resuspended in a volume of 50 μl, following which CellROX™ Deep Red oxidative stress reagent (Thermo-Fisher Scientific) was added to 96-well plates at […]. The plates were then incubated for 30 min at 37 °C. After incubation, the results were analyzed by cell imaging using the Evos cell imaging system. Cells treated with different compounds were compared with untreated control cells and the positive control. Fluorescence intensity was also measured using the Enspire multimode plate reader at excitation/emission wavelengths of 640/665 nm. Accumulation ROS at the cellular level is a good indicator of oxidative stress and is precursor to a chain reaction leading damage at the cellular level to proteins, nucleic acids, lipids, membrane and organelles. These cellular alterations can lead to activation of the cell death process. As such, ROS play an important role in cell signaling and the apoptosis pathway. An intracellular excess of ROS can be detected by the cell-permeable CellROX™ Deep Red reagent, which is a fluorogenic ROS sensor.

L. amazonensis = tested on: L. amazonensis; parameters: method as in PMID 22970332; settings: read-out: IC50 (inhibition of infection by L. amazonensis); cited from earlier work
[5] = tested on: Leishmania amazonensis amastigotes; assay: Anti-amastigotes assay (intra-macrophagic stage, J774A.1); assay type: cell-based; settings: J774.A1; Leishmania amazonensis, intracellular in J774A.1; read-out: IC50: amastigote
Description: The three molecules 1-3 were tested against the intra-macrophagic stage of L. amazonensis as previously described. Briefly, in a 96-well, flat-bottom plate, macrophages of the J774A.1 cell line (American Type Culture Collection #TIB-67) were cultured at a density of 2 × 10^5 cells/ml in RPMI 1640 medium supplemented with 10% heat-inactivated FBS and incubated for 1 h at 37 °C in a 5% CO2 atmosphere to allow almost complete attachment of the cells. The macrophages were then infected with L. amazonensis promastigotes in the stationary phase (7-day-old culture) at a ratio of 1:10 (macrophage:parasite) at a concentration of 2 × 10^6 cells/ml and incubated at 37 °C in 5% CO2 for 24 h. Wells were washed with medium to remove external promastigotes. Thereafter, the infected macrophages were treated with the serially diluted concentrations of the pure compounds for 24 h, following which the medium was removed carefully and replaced by 30 μl of new medium containing 0.05% sodium dodecyl sulfate and the plate shaken for 30 s. Subsequently, 170 μl of Schneider’s medium was added to each well to give a final volume of 200 μl, and 20 μl of AlamarBlue® was added to the plate; the plate was then incubated at 26 °C for 72 h, following which the plates were analyzed using the same protocol as for the promastigotes assay.

[6] = tested on: Leishmania amazonensis promastigotes; assay: DNA condensation assay (Hoechst 33342 / PI); assay type: cell-based; settings: L. amazonensis promastigotes, IC90, 24 h
Description: (§2) Hoechst dye is a blue-fluorescent dye that stains condensed chromatin of apoptotic cells. To detect DNA condensation, the chromatin condensation/dead cell apoptosis kit was used (Invitrogen, Thermo Fisher Scientific, Waltham, MA, USA). Cells were incubated in the presence of the compounds to be tested at IC90. The IC90 values were determined using nonlinear regression of the AlamarBlue® curve. After 24 h of incubation, cells were harvested and resuspended in medium, following which 1 μl of Hoechst 33342 stock solution was added to parasites and incubated for 20 min. Results were analyzed by cell imaging using the Evos FL cell imaging system (Thermo Fisher Scientific). The experiments were repeated using a double-stain apoptosis detection kit (Hoechst 33342/PI; Thermo Fisher Scientific). […] A positive control was also tested: miltefosine (L. amazonensis) and benznidazole (T. cruzi).
DNA condensation is an important cellular event, providing evidence of apoptotic cell death. Hoechst dye is a blue-fluorescent dye that stains condensed chromatin. […] Also, using propidium iodine (PI), it is possible to distinguish dead cells, which stain red when PI penetrates the nucleus. The results of staining were evaluated using cell imaging. Different microscopy images are regrouped in Fig. 2 (for L. amazonensis) and Fig. 3 (for T. cruzi). […] A clear reduction in cell number is also evident.

Leishmania amazonensis = assay: Oxidative stress / ROS accumulation (CellROX Deep Red); assay type: cell-based; settings: L. amazonensis, IC90, 24 h
Description: as §1

[7] = tested on: Leishmania amazonensis promastigotes; assay: Anti-promastigotes assay (AlamarBlue, 72 h); assay type: cell-based
Description: Experiments including in vitro activity assays of isolated compounds 1–3 were performed against the promastigote and amastigote stages of Leishmania amazonensis (MHOM/BR/77/LTB0016) and the epimastigote stage of Trypanosoma cruzi (Y strain). Promastigotes of L. amazonensis were cultured in Schneider’s medium (Sigma-Aldrich, St. Louis, MO, USA). Typanosoma cruzi strain Y was cultured in liver Infusion tryptose (LIT) medium.
The bioassay was performed using the AlamarBlue® method as previously described. Promastigotes of L. amazonensis were grown at 26 °C in RPMI 1640 modified medium (Gibco BRL Life Technologies Inc., Gaithersburg, MD, USA) and supplemented with 10% heat-inactivated fetal bovine serum (FBS). Cultures in the logarithmic phase were seeded in sterilized 96-well microtiter plates (Corning™, Corning, NY, USA) (10^6 parasites/ml) containing the samples dissolved in 1% DMSO at the suitable concentration to be tested in serial dilutions, and Leishmania medium (RPMI 1640) was used to reach a final volume of 200 μl per well; then 10% of AlamarBlue® was added to the entire plate. After an incubation of 72 h, the plate was checked visually using an inverted microscope, then analyzed using an Enspire multimode plate reader (PerkinElmer, Inc., Waltham, MA, USA) at excitation and emission wavelengths of 570 and 585 nm, respectively. Dose–response curves were plotted, and the concentration at which one half of the maximal inhibitory effect was obtained (IC50) was determined. The analyses were performed in triplicate.
as §2

Structure (SMILES): CC(C)=CC(=O)C/C(C)=C/CC/C(C)=C/CC/C(C)=C/CO [Eleganolone]
IC50 (T. cruzi): 58 µM

IC90 [2]: 25.6 µM
Structure (SMILES): O=C(Cn1ccnc1[N+](=O)[O-])NCc1ccccc1 [Benznidazole, reference compound]
CC50 at 24 h [1]: 400 µM
decrease in ATP concentration (Trypanosoma cruzi [3]): > 80%
ROS accumulation (fluorescence vs negative control) (Trypanosoma cruzi [4]): significant increase in fluorescence

Structure (SMILES): C[C@H]1/C=C/[C@@]2(C)CC[C@@H](C(C)(C)O)[C@@H]2[C@@H](O)C[C@](C)(O)/C=C/C1 [Dolabelladienetriol]
IC50 (L. amazonensis): 44 µM

IC50 [5]: 3.11 µM
IC50 ([7]; 72 h, read-out: IC50: promastigote): 6.47 ± 0.58 µM
IC90 ([7]; nonlinear regression of AlamarBlue curve, read-out: IC90 Leishmania amazonensis: promastigote): 9.63 µM
Structure (SMILES): CCCCCCCCCCCCCCCCOP(=O)([O-])OCC[N+](C)(C)C [Miltefosine, reference compound]
CC50 at 24 h [1]: 72.2 µM
chromatin condensation / cell death stage (Hoechst/PI staining) [6]: dead cells
ROS accumulation (fluorescence vs negative control) (Leishmania amazonensis): more remarkable
